Target: T1, Tyrosine-protein phosphatase non-receptor type 22 (Homo sapiens, UniProt Q9Y2R2)
T1 sequence (Q9Y2R2 whole entry): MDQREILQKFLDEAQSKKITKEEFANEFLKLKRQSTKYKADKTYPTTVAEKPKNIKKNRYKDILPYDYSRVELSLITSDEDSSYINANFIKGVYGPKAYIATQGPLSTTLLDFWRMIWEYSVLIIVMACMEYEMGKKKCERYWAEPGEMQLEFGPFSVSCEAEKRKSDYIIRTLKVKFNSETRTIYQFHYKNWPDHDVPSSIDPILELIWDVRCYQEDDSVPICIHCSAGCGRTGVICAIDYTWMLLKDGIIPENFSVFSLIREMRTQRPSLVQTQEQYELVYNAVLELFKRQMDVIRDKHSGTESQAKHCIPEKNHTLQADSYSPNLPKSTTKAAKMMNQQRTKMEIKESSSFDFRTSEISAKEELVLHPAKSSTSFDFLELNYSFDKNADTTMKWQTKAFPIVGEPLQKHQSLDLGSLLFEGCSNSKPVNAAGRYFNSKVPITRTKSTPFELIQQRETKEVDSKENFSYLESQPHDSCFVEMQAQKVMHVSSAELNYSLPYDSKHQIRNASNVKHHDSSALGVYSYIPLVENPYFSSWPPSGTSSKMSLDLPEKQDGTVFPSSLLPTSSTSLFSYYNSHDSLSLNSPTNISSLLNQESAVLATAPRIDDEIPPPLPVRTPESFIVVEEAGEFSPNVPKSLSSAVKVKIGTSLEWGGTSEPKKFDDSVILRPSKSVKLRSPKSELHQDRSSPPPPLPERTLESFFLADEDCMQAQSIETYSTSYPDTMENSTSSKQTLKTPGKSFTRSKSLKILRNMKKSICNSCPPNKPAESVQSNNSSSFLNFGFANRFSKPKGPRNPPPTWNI
Assay: LYP (PTPN22) phosphatase inhibitor potency, SAR follow-up, biochemical, pCAP fluorogenic substrate, fluorescence, set 3 (AID 449727)

IC50: > 100 µM
Structure (SMILES): CCOc1ccc2nc(NC(=O)CSc3cc(O)c4c(C)c(C)sc4n3)sc2c1 [2-[(2,3-dimethyl-4-oxidanylidene-5H-thieno[2,3-b]pyridin-6-yl)sulfanyl]-N-(6-ethoxy-1,3-benzothiazol-2-yl)ethanamide]

Source: BindingDB's records for doi:10.7270/Q2M9073J (Burnham Center For Chemical Genomics, 2010)
